COc1ccc(C(=O)c2ccc(OC)cc2)cc1
solubility (mole fraction)
Settings | in benzene | in ethanol | in ethyl acetate | in isobutanol | in isopropanol | in methanol | in methyl acetate | in n-butanol | in n-propanol | in n-propyl acetate
293.15 K | 0.0123 | 0.00091 | 0.00908 | 0.00101 | 0.00079 | 0.00067 | 0.00958 | 0.00114 | 0.00114 | 0.00947
298.15 K | 0.0149 | 0.00109 | 0.0111 | 0.00137 | 0.001 | 0.00081 | 0.0115 | 0.00164 | 0.00141 | 0.0112
303.15 K | 0.018 | 0.00141 | 0.0129 | 0.00168 | 0.0013 | 0.00104 | 0.0138 | 0.00214 | 0.00177 | 0.0126
308.15 K | 0.0221 | 0.00188 | 0.0155 | 0.00237 | 0.00193 | 0.00134 | 0.0166 | 0.00306 | 0.00224 | 0.0151
313.15 K | 0.0278 | 0.0024 | 0.0189 | 0.00313 | 0.00241 | 0.00181 | 0.0204 | 0.0036 | 0.00314 | 0.0187
318.15 K | 0.0338 | 0.00302 | 0.023 | 0.00404 | 0.00308 | 0.00219 | 0.0248 | 0.00457 | 0.00403 | 0.0229
323.15 K | 0.041 | 0.00402 | 0.0284 | 0.00539 | 0.00423 | 0.00286 | 0.0311 | 0.00612 | 0.00538 | 0.0277
328.15 K | 0.0504 | 0.00516 | 0.0343 | 0.00718 | 0.00549 | 0.0037 | 0.0376 | 0.00824 | 0.00707 | 0.0329
333.15 K | 0.063 | 0.00653 | 0.0408 | 0.00972 | 0.0075 | 0.00473 | – | 0.00996 | 0.00928 | 0.0406

From BigSolDB 2.1
